Reference: paper PMC7540527, “Synthesis of Antiviral Perfluoroalkyl Derivatives of Teicoplanin and Vancomycin” (Chemmedchem, 2020)
≈ marks a conversion by molar mass, not a printed value. Like-named read-outs stand apart in the source and are kept apart here.

What was measured:
[1] = tested on: Staphylococcus aureus MSSA ATCC 29213; experiment: Antibacterial MIC; type: cell-based; settings: for MIC: Staphylococcus aureus, read-out: MIC Staphylococcus aureus MSSA ATCC 29213
[2] = tested on: S. aureus MRSA ATCC 33591; experiment: Antibacterial MIC; type: cell-based, Staphylococcus aureus; settings: for MIC: Staphylococcus aureus, read-out: MIC S. aureus MRSA ATCC 33591
[3] = tested on: Staphylococcus epidermidis ATCC 35984 biofilm; experiment: Antibacterial MIC; type: cell-based
HeLa cells = settings: human
[4] = tested on: panel of Gram-positive bacteria; type: cell-based
[5] = tested on: Enterococcus faecalis ATCC 29212; experiment: Antibacterial MIC; type: cell-based; settings: for MIC: Enterococcus faecalis, ATCC29212, read-out: MIC Enterococcus faecalis ATCC 29212
E. faecalis 15376 VanA = experiment: Antibacterial MIC; type: cell-based, Enterococcus faecalis; settings: for MIC: Enterococcus faecalis, 15376VANA, read-out: MIC E. faecalis 15376 VanA
[6] = tested on: E. faecalis ATCC 51299 VanB; experiment: Antibacterial MIC; type: cell-based, Enterococcus faecalis; settings: for MIC: Enterococcus faecalis, ATCC51299, read-out: MIC E. faecalis ATCC 51299 VanB
[7] = tested on: Bacillus subtilis ATCC 6633; experiment: Antibacterial MIC; type: cell-based; settings: for MIC: Bacillus subtilis, ATCC6633, read-out: MIC Bacillus subtilis ATCC 6633
[8] = tested on: influenza A and B viruses; type: cell-based, influenza virus
[9] = tested on: HEL human embryonic lung fibroblast cells
Vero cells = settings: African green monkey
[10] = tested on: influenza A/H1N1 A/Ned/378/05; experiment: microbe, parasite or virus in culture; type: cell-based, influenza A virus
[11] = tested on: influenza A/H3N2 A/Victoria/361/11; experiment: microbe, parasite or virus in culture; type: cell-based, influenza A virus
[12] = tested on: influenza B virus B/Ned/537/05; experiment: CPE reduction assay for influenza virus in MDCK cells, influenza B; type: cell-based; settings: MDCK cells
Description: The CPE reduction assay for influenza virus was described in full detail in previous publications.41 The virus strains were: A/PR/8/34 (A/H1 N1); A/Virginia/ATCC3/2009 (A/H1 N1pdm); A/HK/7/87 (A/H3 N2); B/Ned/537/05; and B/HK/5/72. On day 0, Madin‐Darby canine kidney (MDCK) cells in 96‐well plates were infected with influenza virus at a multiplicity of infection (MOI) of 0.0004 plaque forming units (PFU) per cell. After three days incubation at 35 °C, virus‐induced CPE and compound cytotoxicity were scored by microscopy, after which the data were confirmed by formazan‐based MTS cell viability assay (CellTiter 96® AQueous One Solution Cell Proliferation Assay from Promega). The antiviral effect was expressed as the compound concentration producing 50 % inhibition of the virus‐induced CPE (EC50). Compound cytotoxicity was expressed as the compound concentration causing minimal changes in cell morphology (MCC), and 50 % cytotoxic concentration (CC50) based on MTS assay.42

| Molecule | CC50 (MDCK cells; dog) [µM] | Cytotoxicity MCC (minimum cytotoxic concentration) (MDCK cells; dog) [µM] | MIC [1] [µg/mL] | MIC [2] [µg/mL] | MIC Staphylococcus epidermidis ATCC 35984 biofilm [3] [µg/mL] | CC50 (HeLa cells) [µM] | Cytotoxicity MCC (HeLa cells) | MIC [5] [µg/mL] | MIC (E. faecalis 15376 VanA) [µg/mL] | MIC [6] [µg/mL] | MIC [7] [µg/mL] | Activity against influenza strains (in words) [8] | CC50 [9] [µM] | CC50 (Vero cells) [µM] | also measured |
| --- | --- | --- | --- | --- | --- | --- | --- | --- | --- | --- | --- | --- | --- | --- | --- |
| CC(C)C[C@H](C(=O)N[C@H]1C(=O)N[C@@H](CC(N)=O)C(=O)N[C@H]2C(=O)N[C@H]3C(=O)N[C@H](C(=O)N[C@H](C(=O)O)c4cc(O)cc(O)c4-c4cc3ccc4O)[C@H](O)c3ccc(c(Cl)c3)Oc3cc2cc(c3O)Oc2ccc(cc2Cl)[C@H]1O)n1cc(COCCOCCOCCOCCOCCCC(F)(F)C(F)(F)C(F)(F)C(F)(F)F)nn1 [Compound 12] | 4 | 42 | 4 (≈ 2.43 µM) | 8 (≈ 4.85 µM) | 8 (≈ 4.85 µM) | > 100 | > 100 | 8 (≈ 4.85 µM) | 16 (≈ 9.71 µM) | 16 (≈ 9.71 µM) | 32 (≈ 19.4 µM) | – | – | – | Cytotoxicity in MDCK cells (in words) (MDCK cells): highly cytotoxic; Antibacterial activity (in words) [4]: moderate activity |
| CC(=O)N[C@H]1[C@H](O[C@@H]2c3ccc(c(Cl)c3)Oc3cc4cc(c3O)Oc3ccc(cc3Cl)C[C@H]3NC(=O)[C@H](N=[N+]=[N-])c5ccc(O)c(c5)Oc5cc(O)cc(c5)[C@H](NC3=O)C(=O)N[C@H]4C(=O)N[C@H]3C(=O)N[C@@H]2C(=O)N[C@H](C(=O)O)c2cc(O)cc(O)c2-c2cc3ccc2O)O[C@H](CO)[C@@H](O)[C@@H]1O [Compound 14] | > 100 | >100 | – | – | – | – | – | – | – | – | – | – | – | – | – |
| CC(=O)NC1C(OC2c3ccc(c(Cl)c3)Oc3cc4cc(c3O)Oc3ccc(cc3Cl)CC3NC(=O)C(n5cc(COCCOCCCC(F)(F)C(F)(F)C(F)(F)C(F)(F)F)nn5)c5ccc(O)c(c5)Oc5cc(O)cc(c5)C(NC3=O)C(=O)NC4C(=O)NC3C(=O)NC2C(=O)NC(C(=O)O)c2cc(O)cc(O)c2-c2cc3ccc2O)OC(CO)C(O)C1O (centres unmarked) [Compound 15] | > 100 | 100 | 0.5 (≈ 0.28 µM) | 0.5 (≈ 0.28 µM) | 0.5 (≈ 0.28 µM) | 43 | – | 0.5 (≈ 0.28 µM) | 1 (≈ 0.559 µM) | 4 (≈ 2.24 µM) | 0.5 (≈ 0.28 µM) | robust activity | > 100 | > 100 | Cytotoxicity MCC (Vero cells): > 100 |
| CC(=O)NC1C(OC2c3ccc(c(Cl)c3)Oc3cc4cc(c3O)Oc3ccc(cc3Cl)CC3NC(=O)C(n5cc(COCCOCCOCCOCCOCCCC(F)(F)C(F)(F)C(F)(F)C(F)(F)F)nn5)c5ccc(O)c(c5)Oc5cc(O)cc(c5)C(NC3=O)C(=O)NC4C(=O)NC3C(=O)NC2C(=O)NC(C(=O)O)c2cc(O)cc(O)c2-c2cc3ccc2O)OC(CO)C(O)C1O (centres unmarked) [Compound 16] | 97 | 100 | 0.5 (≈ 0.26 µM) | 0.5 (≈ 0.26 µM) | 0.5 (≈ 0.26 µM) | > 100 | > 100 | 1 (≈ 0.521 µM) | 2 (≈ 1.04 µM) | 1 (≈ 0.521 µM) | 2 (≈ 1.04 µM) | robust activity | > 100 | > 100 | – |
| CC(=O)NC1C(OC2c3ccc(c(Cl)c3)Oc3cc4cc(c3O)Oc3ccc(cc3Cl)CC3NC(=O)C(n5cc(COCCOCCCC(F)(F)C(F)(F)C(F)(F)C(F)(F)C(F)(F)C(F)(F)C(F)(F)C(F)(F)F)nn5)c5ccc(O)c(c5)Oc5cc(O)cc(c5)C(NC3=O)C(=O)NC4C(=O)NC3C(=O)NC2C(=O)NC(C(=O)O)c2cc(O)cc(O)c2-c2cc3ccc2O)OC(CO)C(O)C1O (centres unmarked) [Compound 17] | 44 | 100 | 16 (≈ 8.05 µM) | 16 (≈ 8.05 µM) | 16 (≈ 8.05 µM) | > 100 | > 100 | 256 (≈ 129 µM) | 256 (≈ 129 µM) | 256 (≈ 129 µM) | 128 (≈ 64.4 µM) | robust activity | > 100 | > 100 | – |
| CC(=O)NC1C(OC2c3ccc(c(Cl)c3)Oc3cc4cc(c3O)Oc3ccc(cc3Cl)CC3NC(=O)C(n5cc(COCCOCCOCCOCCOCCCC(F)(F)C(F)(F)C(F)(F)C(F)(F)C(F)(F)C(F)(F)C(F)(F)C(F)(F)F)nn5)c5ccc(O)c(c5)Oc5cc(O)cc(c5)C(NC3=O)C(=O)NC4C(=O)NC3C(=O)NC2C(=O)NC(C(=O)O)c2cc(O)cc(O)c2-c2cc3ccc2O)OC(CO)C(O)C1O (centres unmarked) [Compound 18] | 4.2 | – | 8 (≈ 3.77 µM) | 4 (≈ 1.89 µM) | 4 (≈ 1.89 µM) | 41 | – | 16 (≈ 7.55 µM) | 32 (≈ 15.1 µM) | 32 (≈ 15.1 µM) | 4 (≈ 1.89 µM) | without antiviral activity | > 100 | > 100 | Cytotoxicity in MDCK cells (in words) (MDCK cells): high cytotoxicity |
| CN[C@H](CC(C)C)C(=O)N[C@H]1C(=O)N[C@@H](CC(N)=O)C(=O)N[C@H]2C(=O)N[C@H]3C(=O)N[C@H](C(=O)N[C@H](C(=O)O)c4cc(O)cc(O)c4-c4cc3ccc4O)[C@H](O)c3ccc(c(Cl)c3)Oc3cc2cc(c3O[C@@H]2O[C@H](CO)[C@@H](O)[C@H](O)[C@H]2O[C@H]2C[C@](C)(N)[C@H](O)[C@H](C)O2)Oc2ccc(cc2Cl)[C@H]1O [VAN, vancomycin] | – | – | 0.5 (≈ 0.345 µM) | 0.5 (≈ 0.345 µM) | 2 (≈ 1.38 µM) | – | – | 1 (≈ 0.69 µM) | 256 (≈ 177 µM) | 128 (≈ 88.3 µM) | 0.5 (≈ 0.345 µM) | – | – | – | – |
| teicoplanin [reference compound] | – | – | – | – | 2 | – | – | – | – | – | – | – | – | – | CC50 (MDCK cells): > 100 µM; Cytotoxicity MCC (minimum cytotoxic concentration) (MDCK cells): >100 µM; MIC Staphylococcus aureus MSSA ATCC 29213 ([1]; methicillin-sensitive): 0.5 µg/mL; MIC S. aureus MRSA ATCC 33591 ([2]; methicillin-resistant): 0.5 µg/mL; EC50 ([10]; read-out: Antiviral EC50 A/H1N1 CPE): > 100 µM; EC50 ([10]; read-out: Antiviral EC50 A/H1N1 MTS): > 100 µM; EC50 ([11]; read-out: Antiviral EC50 A/H3N2 CPE): > 100 µM; EC50 ([11]; read-out: Antiviral EC50 A/H3N2 MTS): > 100 µM; MIC Enterococcus faecalis ATCC 29212 [5]: 2 µg/mL; MIC E. faecalis 15376 VanA (E. faecalis 15376 VanA; vanA gene positive): 256 µg/mL; MIC E. faecalis ATCC 51299 VanB ([6]; vanB gene positive): 4 µg/mL; EC50 ([12]; B/Ned/537/05, MTS assay, read-out: Antiviral EC50 Influenza B MTS): > 100 µM; EC50 ([12]; B/Ned/537/05, visual CPE scoring, read-out: Antiviral EC50 Influenza B CPE): > 100 µM; MIC Bacillus subtilis ATCC 6633 [7]: 0.5 µg/mL |
